How the values were obtained:
VEGFR2 kinase = target: T1, VEGFR2 kinase (Homo sapiens, UniProt P35968); test: VEGFR2 kinase assay (33P incorporation into Poly(Glu-Tyr)); type: biochemical; conditions: 500 nM test compound; read-out: Inhibition at 500 nM (%) VEGFr-2
T1 construct: recombinant N-terminal 6×His-tagged VEGFR2 kinase domain construct expressed by baculovirus; 6xHis (N); made in house
Summary of the method: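 Recombinant baculovirus-expressed N-terminal His6-tagged VEGFR2 kinase domain (6.25 ng) phosphorylated poly(Glu-Tyr) 4:1 with 100 μM ATP plus [33P]-γ-ATP in MOPS pH 7.0, 30 °C, 30 min. Test compound was at 500 nM (4% DMSO). Filter-retained radioactivity relative to DMSO control gave % inhibition.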

PDGFR-β kinase = target: T2, PDGFR-β kinase (Homo sapiens, UniProt P09619); test: PDGFR-β kinase assay (33P incorporation into Poly(Glu-Tyr)); type: biochemical; conditions: 500 nM test compound
T2 construct: recombinant N-terminal 6×His-tagged PDGFR-β kinase domain construct expressed by baculovirus; 6xHis (N); made in house
T2 sequence (P09619 600-962 limits assumed): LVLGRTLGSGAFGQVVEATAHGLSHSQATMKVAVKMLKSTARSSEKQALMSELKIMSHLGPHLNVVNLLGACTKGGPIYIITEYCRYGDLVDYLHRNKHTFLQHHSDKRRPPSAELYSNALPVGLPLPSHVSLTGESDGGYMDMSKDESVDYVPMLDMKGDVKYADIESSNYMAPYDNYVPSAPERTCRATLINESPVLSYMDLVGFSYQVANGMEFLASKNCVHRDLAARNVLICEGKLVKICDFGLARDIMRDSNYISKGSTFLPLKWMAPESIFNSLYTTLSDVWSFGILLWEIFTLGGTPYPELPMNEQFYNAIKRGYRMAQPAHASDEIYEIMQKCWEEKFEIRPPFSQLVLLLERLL
Summary of the method: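 His-tagged PDGFR-β kinase domain (55 ng) with Poly(Glu-Tyr) 4:1, 30 μM ATP plus [33P]-γ-ATP, pH 7.0 MnCl2 buffer, and 500 nM compound for 30 min at 30° C. Filter-bound radioactivity counted; inhibition computed relative to DMSO control.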

T1 sequence (P35968 834-1162 limits assumed): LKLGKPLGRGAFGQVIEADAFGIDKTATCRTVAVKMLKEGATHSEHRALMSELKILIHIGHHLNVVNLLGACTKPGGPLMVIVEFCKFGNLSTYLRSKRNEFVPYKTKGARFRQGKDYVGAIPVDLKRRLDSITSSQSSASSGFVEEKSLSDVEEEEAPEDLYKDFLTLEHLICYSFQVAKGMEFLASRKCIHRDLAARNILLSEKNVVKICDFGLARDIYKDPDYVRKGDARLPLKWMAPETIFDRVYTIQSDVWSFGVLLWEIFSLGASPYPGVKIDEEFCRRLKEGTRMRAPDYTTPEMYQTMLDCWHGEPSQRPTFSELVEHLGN

| inhibition at 0.5 µM (VEGFR2 kinase) [%] | inhibition at 0.5 µM (PDGFR-β kinase) [%] | SMILES |
| --- | --- | --- |
| 28.9 | 1.4 | CCOC(=O)CCc1c(/C=C2\C(=O)Nc3ccc(NC(=O)c4ccc(OC)cc4)cc32)[nH]c2c1C(=O)CCC2 [DCB-70141, (Z)-ethyl 3-(2-((5-(4-methoxybenzamido)-2-oxoindolin-3-ylidene)methyl)-4-oxo-4,5,6,7-tetrahydro-1H-indol-3-yl)propanoate] |
| 38.1 | 1 | COc1ccc(C(=O)Nc2ccc3c(c2)/C(=C/c2[nH]c4c(c2CCC(=O)O)C(=O)CCC4)C(=O)N3)cc1 [DCB-70143, (Z)-3-(2-((5-(4-methoxybenzamido)-2-oxoindolin-3-ylidene)methyl)-4-oxo-4,5,6,7-tetrahydro-1H-indol-3-yl)propanoic acid] |
| 67.6 | 16.1 | CN(c1cccc(Cl)c1)S(=O)(=O)c1ccc2c(c1)/C(=C/c1[nH]c3c(c1CCC(=O)O)C(=O)CCCC3)C(=O)N2 [DCB-70148, (Z)-3-(2-((5-(N-(3-chlorophenyl)-N-methylsulfamoyl)-2-oxoindolin-3-ylidene)methyl)-4-oxo-1,4,5,6,7,8-hexahydrocyclohepta[b]pyrrol-3-yl)propanoic acid] |
| 57.5 | 10.8 | O=C(O)CCc1c(/C=C2\C(=O)Nc3ccc(S(=O)(=O)Nc4ccc(F)c(Cl)c4)cc32)[nH]c2c1C(=O)CCCC2 [DCB-70149, (Z)-3-(2-((5-(N-(3-chloro-4-fluorophenyl)sulfamoyl)-2-oxoindolin-3-ylidene)methyl)-4-oxo-1,4,5,6,7,8-hexahydrocyclohepta[b]pyrrol-3-yl)propanoic acid] |

From patent US7897602B2, “Indolinone compounds as kinase inhibitors” (Development Center for Biotechnology, priority 2009, dated 2011)
